Reference: patent US20070258972A1, “Combination of a Histone Deacetylase Inhibitor with a Death Receptor Ligand” (priority 2003, published 2007)

Experiments:
c-FLIPL mRNA = assay: RT-PCR assay for c-FLIP mRNA levels; assay type: cell-based; settings: 8 hours
Protocol: Total RNA was isolated from cells utilizing a TRIZOL LS reagent (Invitrogen Carlsbad, Calif.). RT-PCR analysis was performed, as previously described. The RNA (1.0 μg) was reverse-transcribed into cDNA by using SuperScript II RT (Invitrogen Carlsbad, Calif.) according to the manufacturer's protocol. For the c-FLIP PCR, the primer sequences are as follows, forward primer: 5′-GCCCGAGCACCGAGACTACG-3′; and reverse primer: 5′-AGG GAC GGD GAG CTG TGA GAC TG-3′. β-actin forward primer: 5′-CTA CM TGA GCT GCG TGT GG-3′; and reverse primer: MG GM GGC TGG MG AGT GC. The PCR reaction containing 0.2 mM concentration of dATP, dCTP, dGTP, dTTP and 200 nM concentration of each c-FLIP primers and 50 nM of each β-actin primers, 1.5 mM of MgCl2, and 10×PCR buffer containing Tris-HCL (pH 8.0), 500 mM KCL and 1 U of Tag polymerase (Invitrogen Carlsbad, Calif.). The reaction is performed at 95° C. for 5 minutes, and is followed by 30 cycles of de-naturating at 95° C. for 45 seconds, annealing at 52° C. for 45 seconds and the extension at 72° C. for one minute. The PCR products are separated on a 2% agarose/eithidium bromide gel. The size of the amplified products was 395 bases pairs for the c-FLIP and 527 base pairs for β-actin product, respectively.

[1] = test system: Apo-2L/TRAIL-induced DISC; assay: Apo-2L/TRAIL-induced DISC analysis; assay type: cell-based, human; settings: LAQ824 100 nM for 24 hours followed by Apo-2L/TRAIL (100 ng/mL for two hours) versus Apo-2L/TRAIL; not c-FLIPL
Protocol: Untreated or LAQ824 treated SKW 6.4 or Jurkat cells are suspended at a final concentration of 10^6 cells/mL in a pre-warmed, complete RPMI media. Cells are treated with 100 ng/mL Apo-2L/TRAIL for 2 hours at 37° C, followed by washing with 1 mL of ice-cold PBS. Cells are lysed in 500 μL lysis buffer (25 mM Tris-HCl, pH 7.2, 150 mM NaCl, 25 mM NaF, 1 mM benzamidine, 1.0% Triton X-100, 2 μg/mL aprotinin 2 μg/mL leupeptin, 1 μg/mL pepstin-A and 0.1 μg/mL PMSF) for 30 minutes on ice. In the untreated controls, 100 ng/mL Apo-2L/TRAIL was added after lysis of cells, to immunoprecipitate non-stimulated Apo-2L/TRAIL receptors. One-hundred micrograms (100 μg) of the lysates was incubated at 4° C. for 2 hours with 1 μg each of anti-Apo-2L/TRAIL receptor 1 & 2 (DR4 and DR5) antibodies, provided by Immunex Corp., Seattle Wash. The immune-complexes are incubated overnight at 4° C. with 20 μL of protein A-agarose beads (Roche, Indianapolis, Ind.). The beads are recovered by centrifugation and washed twice with the lysis buffer. The pellet was re-suspended in the sample buffer and analyzed by SDS-PAGE and immunoblot analysis using antibodies against caspase-8, DR5, DR4 and FADD.

HDAC = settings: 5-250 nM; HeLa cell nuclear extracts; previously reported; cited from earlier work
primary AML blasts = assay: Western analyses of proteins, primary AML blasts; assay type: cell-based, human
Protocol: (§1) Western analyses of DR4, DR5, Apo-2L, FADD, Caspase-8, c-FLIPL & S, BID, Caspase-9, Caspase-3, PARP, XIAP, clAP1, survivin and β-actin are performed using specific anti-sera or monoclonal antibodies according to previously reported protocols. Horizontal scanning densitometry was performed on Western blots by using acquisition into Adobe Photo Shop (Apple, Inc., Cupertino, Calif.) and analysis by the NIH Image Program (U.S. National Institutes of Health, Bethesda, Md.). The expression of β-actin was used as a control.

Jurkat and SKW 6.4 cells = assay: Western analyses of proteins, Jurkat and SKW 6.4 cells; assay type: cell-based, human
Protocol: as §1

O=C(/C=C/c1ccc(CN(CCO)CCc2c[nH]c3ccccc23)cc1)NO [LAQ824, N-hydroxy-3-[4-[[(2-hydroxyethyl)[2-(1H-indol-3-yl)ethyl]-amino]methyl]phenyl]-2E-2-propenamide]
inhibition of the mRNA level of c-FLIPL (c-FLIPL mRNA): 75%
recruitment of FADD and caspase-8 into the immunoprecipitates of DR4 & DR5 [1]: more recruitment
in vitro HDAC activity (HDAC): inhibits the in vitro HDAC activity in a dose-dependent manner
DR4 and DR5 levels (primary AML blasts): increases
levels of FLIPL and c-FLIPS (primary AML blasts): down-regulates
acetylation of histones H3 and H4 (primary AML blasts; 100 nM or 250 nM, 24 hours): induces
acetylation of histone H3 and histone H4 (Jurkat and SKW 6.4 cells; 50 nM or 200 nM, 24 hours, Jurkat and SKW 6.4 cells): increased
intracellular levels of p27 (Jurkat and SKW 6.4 cells; 50 nM, SKW 6.4 and Jurkat cells): increase
p27 levels (Jurkat and SKW 6.4 cells; 200 nM, both cell-types): attenuated
Apo-2L/TRAIL, DR4 and DR5 levels (Jurkat and SKW 6.4 cells; 24 hours, SKW 6.4 and Jurkat cells): induces
levels of Bcl-xL, Bcl-2, XIAP, c-IAP and survivin (Jurkat and SKW 6.4 cells; SKW 6.4 and Jurkat cells): attenuates
levels of FLIPL and FLIPS (Jurkat and SKW 6.4 cells; SKW 6.4 and Jurkat cells): attenuates
levels of p21 (Jurkat and SKW 6.4 cells; SKW 6.4 cells): dose-dependent increase
